The record followed here is PubChem BioAssay (NCI).

Holding throughout (test): DTP human tumour cell line panel, 48 h
The test system of assay [1] is A498 renal.
The test system of assay [2] is BT-549 breast.
For assay [3], the system named is HCT-116 colon.
Assay [4] deals with HL-60(TB) leukemia.
The test system of assay [5] is HT29 colon.
The subject of assay [6] is IGROV1 ovarian.
Assay [7] concerns KM12 colon.
Assay [8] concerns M14 melanoma.
In assay [9] the test system is MDA-N.
The test system of assay [10] is NCI-H226 lung.
The test system of assay [11] is NCI-H23 lung.
Assay [12] concerns NCI-H460 lung.
The test system of assay [13] is SF-268 CNS.
For assay [14], the system named is SK-MEL-5 melanoma.
Assay [15] has as its system SNB-19 CNS.
The test system of assay [16] is SR leukemia.
The test system of assay [17] is U251 CNS.
Assay [18] has as its system UACC-257 melanoma.
Assay [19] has as its system HOP-62 NSCLC.
The subject of assay [20] is SF-295 CNS.

Each structure is given as a SMILES string.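 Interpolation was linear, between the two tested concentrations surrounding the appropriate level; five concentrations were tested over 48 hours in 96-well plates. TGI marks complete inhibition of growth.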

Broadly, the TGI is the concentration giving total growth inhibition. Higher therefore signals less potent growth arrest. Regarding `COc1cc(/C=C/C2=NN(c3cccc(S(=O)(=O)O)c3)C3(C2)C(Cl)C(=O)N3c2nc3ccccc3s2)ccc1O` (stereo unspecified), the TGI in assay [1] is greater than 100 µM; in assay [2], 29.1 µM; in assay [3], 39.2 µM; in assay [4], 42.5 µM; in [5], 40.8 µM; in assay [6] it was 31.5 µM. Further, the concentration for total growth inhibition (TGI) was 41.2 µM in assay [7]; greater than 100 µM in [8]; 60.3 µM in assay [9]; 52.6 µM in assay [10]; 29.6 µM in assay [11]; greater than 100 µM in [12]. Moreover, the TGI is 50.5 µM in assay [13]; 85.2 µM in assay [14]; greater than 100 µM in assay [15]; 34.8 µM in assay [16]; 40.7 µM in assay [17]; 42.6 µM in [18].
Consider `CC1CC/C(=C\c2ccc(N(C)C)cc2)C(=O)/C1=C/c1ccc(N(C)C)cc1` (stereo unspecified), for which the TGI in assay [1], in assay [2], in assay [3], in [19], in assay [5] and in assay [6] was greater than 100 µM in each case. In addition, the TGI in [7], in [8], in [9], in assay [10], in [11] and in [20] was greater than 100 µM throughout. Moreover, the concentration for total growth inhibition (TGI) in [14], in assay [16], in [17] and in assay [18] was greater than 100 µM each time.
In the case of `CC(C)CNC(=O)Cn1c2c(c3ccccc31)CCCC2`, the total growth inhibition concentration (TGI) was 85 µM in assay [1]; greater than 100 µM in assay [2]; greater than 100 µM in [3]; greater than 100 µM in [4]; greater than 100 µM in assay [19]; greater than 100 µM in [5]. Moreover, the TGI in assay [6], in assay [8], in [9], in [11], in [12] and in [13] was greater than 100 µM in each case. Also, the concentration for total growth inhibition (TGI) in assay [20], in assay [14], in [15], in assay [16] and in [18] was greater than 100 µM in each case.
Regarding `CN(C)c1ccc(/C=C/c2cc[n+](C)c3ccccc23)cc1`, the total growth inhibition concentration (TGI) in [1] is greater than 58.8 µM; in assay [2], 8.44 µM; in assay [3], 8.62 µM; in assay [19] it was 16.3 µM; in [5], 12.2 µM; in assay [6], 21 µM. Further, the TGI stood at 10.7 µM in assay [7]; 15.8 µM in [8]; 9.35 µM in [9]; 16.2 µM in [10]; 12.5 µM in assay [11]; 14.3 µM in assay [12]. Further, the TGI in assay [13] was 21.5 µM; in [20], greater than 43.2 µM; in assay [14], 6.21 µM; in [15], 16.5 µM; in assay [16] it was 6.51 µM; in assay [17] it was 15.9 µM. Also, the TGI in assay [18] worked out at 8.57 µM.
In the case of `N#Cc1ccc(OCc2ccc3nc(-c4ccccc4)c(Cl)nc3c2)cc1`, the total growth inhibition concentration (TGI) in assay [1], in assay [2], in [3], in [4], in assay [19] and in assay [5] was greater than 100 µM in each case. In addition, the concentration for total growth inhibition (TGI) in [6], in [7], in assay [8], in assay [9], in assay [11] and in assay [12] was greater than 100 µM each time. In addition, the TGI in [13], in [20], in assay [14], in assay [15], in assay [16] and in assay [17] was greater than 100 µM throughout. Also, the concentration for total growth inhibition (TGI) in assay [18] is greater than 100 µM.
For `CO[C@@H](c1ccccc1)[C@H](O)[C@](O)(c1ccccc1)P(=O)(OC)OC`, the total growth inhibition concentration (TGI) in assay [1], in assay [2], in assay [3], in [4], in assay [5] and in assay [6] was greater than 100 µM each time. For the same compound, the TGI in [7], in [8], in [9], in assay [10], in assay [11] and in [12] was greater than 100 µM each time. For the same compound, the TGI in [13], in assay [20], in assay [14], in [15], in assay [16] and in [17] was greater than 100 µM in each case. In [18], the total growth inhibition concentration (TGI) is greater than 100 µM.
As to `O=[N+]([O-])c1ccc(N=NN2CCCC2)cc1`, the TGI in assay [1], in assay [2], in assay [3], in assay [4], in assay [19] and in [6] was greater than 100 µM in each case. Besides, the TGI in assay [7], in assay [8], in assay [9], in [10], in [11] and in assay [12] was greater than 100 µM each time. In addition, the concentration for total growth inhibition (TGI) in assay [13], in [20], in assay [14], in assay [15], in [16] and in assay [17] was greater than 100 µM each time. The compound also registered a TGI in [18] greater than 100 µM.
With `Nc1nnc(-c2ccco2)c(-c2ccco2)n1`, the TGI in assay [1], in assay [2], in assay [3], in assay [4], in [5] and in assay [6] was greater than 100 µM each time. For the same compound, the concentration for total growth inhibition (TGI) in [7], in assay [8], in [9], in [10], in assay [11] and in assay [12] was greater than 100 µM each time. Also, the TGI in [13], in assay [20], in assay [14], in assay [15], in assay [16] and in [17] was greater than 100 µM each time. Also, the concentration for total growth inhibition (TGI) in [18] was greater than 100 µM.
